Measured values from US20260206757A1, “METHODS OF CONTROLLING UNDESIRABLE PLANTS WITH PPO HERBICIDES AND COMBINATIONS IN HERBICIDE TOLERANT CROP PLANTS” (BASF AGRO B.V., priority 2022, published 2026).

Experiments:
Erigeron canadensis = experiment: Greenhouse experiment, post emergence herbicidal activity; assay type: in vivo; details: ERICA
Method in brief: (§1)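 Herbicidal effect is scored 0–100% against untreated controls at 20 or 21 days after spraying. Applications were made at the 2 to 4 leaf stage, using water as carrier and 1% MSO adjuvant.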

Convolvulus arvensis = experiment: as above; assay type: in vivo; details: CONAR
Method in brief: as §1

Hibiscus trionum = experiment: as above; assay type: in vivo; details: HIBTR
Method in brief: as §1

Ambrosia artemisiifolia = experiment: as above; assay type: in vivo; details: AMBEL, BBCH 12-14, Flumioxazin 4, Imazamox 10 g ai/ha
Method in brief: as §1

Mercuralis annua = experiment: as above; assay type: in vivo; details: MERAN, BBCH 12-14, Flumioxazin 0.5, Imazamox 10 g ai/ha
Method in brief: as §1

Matricaria chamomilla = experiment: as above; assay type: in vivo; details: MATCH
Method in brief: as §1

Sorghum halepense = experiment: as above; assay type: in vivo; details: SORHA, BBCH 12-14, Saflufenacil 4, Flumioxazin 2 g ai/ha
Method in brief: as §1

Setaria viridis = experiment: as above; assay type: in vivo; details: SETVI
Method in brief: as §1

Abutilon theophrasti = experiment: as above; assay type: in vivo; details: ABUTH
Method in brief: as §1

Papaver rhoeas = experiment: as above; assay type: in vivo; details: PAPRH
Method in brief: as §1

Polygonum aviculare = experiment: as above; assay type: in vivo; details: POLAV
Method in brief: as §1

Chenopodium album = experiment: as above; assay type: in vivo; details: CHEAL
Method in brief: as §1

Echinochloa crus-galli = experiment: as above; assay type: in vivo; details: ECHCG, BBCH 12-14, Flumioxazin 2, Fomesafen 123 g ai/ha
Method in brief: as §1

Sonchus arvensis = experiment: as above; assay type: in vivo; details: SONAR
Method in brief: as §1

Urochloa texana = experiment: Field experiment, pre-emergence herbicidal activity on bare ground; assay type: in vivo; details: PANTE, Preem, Saflufenacil 50, Flumioxazin 71.4 g ai/ha
Experimental: (§2) Trial Objective: Efficacy of Saflufenacil in tank mix with Flumioxazin applied in pre-emergence of the weeds on bare ground.
(§3) Trial Objective: Efficacy of Saflufenacil in tank mix with Sulfentrazone applied in pre-emergence of the weeds on bare ground.
(§4) On field test sites, natural weed infestation was treated, pre-emergence of the weeds on bare soil or post-emergence of the weeds.
(§5) For the pre-emergence treatment, the active compounds, suspended or emulsified in water, were applied by means of finely distributing nozzles on bare ground.
(§6) In the following experiments, the herbicidal activity for the individual herbicidal compositions (solo and mixture applications) was assessed up to 36 days after treatment (DAT). The assessments for the damage on undesired weeds caused by the chemical compositions was carried out using a scale from 0 to 100%, compared to the untreated control plants. Here, 0 means no damage and 100 means complete destruction of the plants.
(§7) [formula] • where X=effect in percent using herbicide (A) at an application rate a; • Y=effect in percent using herbicide (B) at an application rate b; • E=expected effect (in %) of herbicide (A)+herbicide (B) at application rates a+b.
(§8) The value E corresponds to the effect (plant damage or injury) which is to be expected if the activity of the individual compounds is additive. If the observed effect is higher than the value E calculated according to the Colby equation, a synergistic effect is present.

Eleusine indica = experiment: as above; assay type: in vivo; details: ELEIN, Preem, Saflufenacil 25, Flumioxazin 71.4 g ai/ha
Experimental: as §2, §3, §4, §5, §6, §7, §8

Digitaria sanguinalis = experiment: as above; assay type: in vivo; details: DIGSA, Preem, Saflufenacil 25, Flumioxazin 71.4 g ai/ha
Experimental: as §2, §4, §5, §6, §7, §8

Setaria faberi = experiment: as above; assay type: in vivo; details: SETFA, Preem, Saflufenacil 50, Flumioxazin 71.4 g ai/ha
Experimental: as §2, §4, §5, §6, §7, §8

Ambrosia trifida = experiment: as above; assay type: in vivo; details: AMBTR, Preem, Saflufenacil 50, Flumioxazin 71.4 g ai/ha
Experimental: as §2, §4, §5, §6, §7, §8

Amaranthus palmeri = experiment: as above; assay type: in vivo; details: AMAPA, Preem, Saflufenacil 25, Flumioxazin 71.4 g ai/ha
Experimental: as §2, §4, §5, §6, §7, §8

HELAN Pacino = experiment: Greenhouse experiment, crop safety of sunflower; assay type: in vivo, Helianthus annuus; details: scale 0 to 100%
Experimental: For the post emergence treatment, the plants were first grown to the 2 to 4 leaf stage (GS 12/14). The plants were cultivated due to their individual requirements at 10-25° C. and 20-35° C. The plants were irrigated as required.
Here, the herbicidal compositions were suspended or emulsified in water as distribution medium and sprayed using finely distributing nozzles. 1% methylated seed oil (MSO) has been added as adjuvant to each of the solo and mixture treatments.
In the greenhouse experiments, the herbicidal activity for the individual herbicidal compositions (solo and mixture applications) was assessed 20/21 days after treatment (DAT).
The evaluation for the damage on undesired weeds caused by the chemical compositions was carried out using a scale from 0 to 100%, compared to the untreated control plants. Here, 0 means no damage and 100 means complete destruction of the plants.

[1] = BBCH 12-14, Saflufenacil 1, Flumioxazin 2 g ai/ha
[2] = BBCH 12-14, Flumioxazin 0.5, Halauxifen 1 g ai/ha
[3] = BBCH 12-14, Flumioxazin 2, Halauxifen 1 g ai/ha
[4] = BBCH 12-14, Flumioxazin 2, Tribenuron-methyl 6 g ai/ha
[5] = BBCH 12-14, Flumioxazin 0.5, Bifenox 168 g ai/ha
[6] = BBCH 12-14, Flumioxazin 0.5, Pyraflufen-ethyl 1.5 g ai/ha

C#CCN1C(=O)COc2cc(F)c(N3C(=O)C4=C(CCCC4)C3=O)cc21 [Flumioxazin, 2-[7-fluoro-3,4-dihydro-3-oxo-4-(2-propyn-1-yl)-2H-1,4-benzoxazin-6-yl]-4,5,6,7-tetrahydro-1H-isoindole-1,3 (2H)-dione]
% Herbicidal activity (Erigeron canadensis; BBCH 12-14, Flumioxazin 1, Pyraflufen-ethyl 1.5 g ai/ha): 60% | % Herbicidal activity (Erigeron canadensis; [1]): 75% | % Herbicidal activity (Convolvulus arvensis; BBCH 12-14, Flumioxazin 0.5, Fomesafen 123 g ai/ha): 65% | % Herbicidal activity (Convolvulus arvensis; [2]): 65% | % Herbicidal activity (Convolvulus arvensis; BBCH12-14, Flumioxazin 0.5, Pyraflufen-ethyl 1.5 g ai/ha): 65% | % Herbicidal activity (Hibiscus trionum; BBCH 12-14, Flumioxazin 0.5, Imazamox 10 g ai/ha): 75% | % Herbicidal activity (Hibiscus trionum; BBCH 12-14, Saflufenacil 0.5, Flumioxazin 2 g ai/ha): 90% | % Herbicidal activity (Ambrosia artemisiifolia): 95% | % Herbicidal activity (Mercuralis annua): 70% | % Herbicidal activity (Matricaria chamomilla; BBCH 12-14, Flumioxazin 1, Fomesafen 123 g ai/ha): 60% | % Herbicidal activity (Matricaria chamomilla; [3]): 65% | % Herbicidal activity (Matricaria chamomilla; [1]): 75% | % Herbicidal activity (Sorghum halepense): 50% | % Herbicidal activity (Setaria viridis; [2]): 30% | % Herbicidal activity (Setaria viridis; [4]): 70% | % Herbicidal activity (Setaria viridis; [1]): 65% | % Herbicidal activity (Abutilon theophrasti; BBCH 12-14, Flumioxazin 1, Imazamox 10 g ai/ha): 90% | % Herbicidal activity (Abutilon theophrasti; BBCH 12-14, Flumioxazin 2, Bifenox 168 g ai/ha): 98% | % Herbicidal activity (Papaver rhoeas; [5]): 85% | % Herbicidal activity (Papaver rhoeas; [2]): 85% | % Herbicidal activity (Papaver rhoeas; [4]): 85% | % Herbicidal activity (Polygonum aviculare; [6]): 45% | % Herbicidal activity (Polygonum aviculare; BBCH 12-14, Flumioxazin 4, Bifenox 168 g ai/ha): 95% | % Herbicidal activity (Polygonum aviculare; [1]): 80% | % Herbicidal activity (Chenopodium album; BBCH 12-14, Flumioxazin 1, Bifenox 168 g ai/ha): 70% | % Herbicidal activity (Chenopodium album; BBCH 12-14, Flumioxazin 2, Fomesafen 123 g ai/ha): 70% | % Herbicidal activity (Echinochloa crus-galli): 55% | % Herbicidal activity (Sonchus arvensis; [5]): 50% | % Herbicidal activity (Sonchus arvensis; [6]): 50% | % Herbicidal activity (Sonchus arvensis; [3]): 50% | % Herbicidal activity (Urochloa texana): 35% | % Herbicidal activity (Eleusine indica): 80% | % Herbicidal activity (Digitaria sanguinalis): 88% | % Herbicidal activity (Setaria faberi): 72% | % Herbicidal activity (Ambrosia trifida): 65% | % Herbicidal activity (Amaranthus palmeri): 85% | Observed crop damage 21 days after treatment (HELAN Pacino; [5]): 65% | Observed crop damage 21 days after treatment (HELAN Pacino; [2]): 65%
